The values that follow are results of earlier work, collected in US4540572A, “Gel-like ointment containing indometacin” (Mepha AG, priority 1983, dated 1985).

The data set concerns human skin. Conditions: from the conventional ointment bases.

Turning to `COc1ccc2c(c1)c(CC(=O)O)c(C)n2C(=O)c1ccc(Cl)cc1` [indometacin], the “absorption through the human skin” value is reported as “lack of its absorption”.
